Reference: ChEMBL document CHEMBL1201862, “PubChem BioAssay data set” (2004)
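A five-concentration, 48-hour dose response in 96-well plates underlies each endpoint, interpolated linearly between surrounding concentrations. At the GI50, growth is halved.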 Calls of active or inactive are those of the source. Rule as the data show it: active = GI50 up to about 1.1 µM and inactive = higher.

Legend:
Assay in all cases: DTP human tumour cell line panel, 48 h
[1] = test system: BT-549
[2] = test system: CAKI-1
[3] = test system: CCRF-CEM
[4] = test system: DU-145
[5] = test system: HL-60
[6] = test system: HOP-92
[7] = test system: K562
[8] = test system: KM12
[9] = test system: LOX IMVI
[10] = test system: MCF7
[11] = test system: MDA-N
[12] = test system: MOLT-4
[13] = test system: NCI-H23
[14] = test system: OVCAR-5
[15] = test system: OVCAR-8
[16] = test system: SK-MEL-28
[17] = test system: SK-MEL-5
[18] = test system: SK-OV-3
[19] = test system: SN12C
[20] = test system: UO-31

Measured: GI50

C=CCNC1=C2C[C@@H](C)C[C@@H](OC)C(OC(=O)CCCN(C)C)[C@H](C)/C=C(\C)[C@@H](OC(N)=O)[C@H](OC)/C=C\C=C(/C)C(=O)NC(=CC1=O)C2=O (stereo not given in full)
inactive: [1] 13.4 µM | [2] 12.4 µM | [3] 8.95 µM | [4] 5.02 µM | [5] 5.51 µM | [6] 17.7 µM | [7] 4.06 µM | [8] 4.07 µM | [9] 10.1 µM | [10] 2.02 µM | [11] 7.26 µM | [12] 5.75 µM | [13] 6.84 µM | [14] 15.2 µM | [15] 4.1 µM | [16] 13.7 µM | [17] 2.51 µM | [18] 2.37 µM | [19] 2.42 µM | [20] 13.6 µM

Cn1c(-c2ccccc2)cc(-c2ccc3c(c2)OCO3)c1-c1ccsc1
inactive: [1] > 100 µM | [2] > 100 µM | [3] > 100 µM | [4] > 100 µM | [5] > 100 µM | [6] > 100 µM | [7] > 100 µM | [8] > 100 µM | [9] > 100 µM | [10] > 100 µM | [11] > 100 µM | [12] > 100 µM | [13] 52.8 µM | [14] > 100 µM | [15] > 100 µM | [16] > 100 µM | [17] > 100 µM | [18] > 100 µM | [19] > 100 µM | [20] > 100 µM
